Reference: PubChem BioAssay AID1963848 (Molecular Pharmacology Branch, DTP, NCI, 2024)

System: 379773-124-R-J2-PDC spheroid viability
Assay: Anticancer human tumor 379773-124-R-J2-PDC patient-derived endometrial carcinoma cell line growth inhibition [POLQ]
Details: spheroids with HUVEC and MSC; for IC50: curve of first compound; for viability, T/C: stronger effect = lower value
How it was run: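 Complex spheroid viability model combining PDC tumour cells with endothelial (HUVEC) and MSC stromal cells. Novobiocin, ART-558 or RP6685 were tested singly and in combination with standard and investigational anticancer drugs. Each was titrated in half-log steps from near clinical Cmax, or from 10 microM where Cmax was unknown.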

[1] = second compound 0.0316 µM, first compound 0.0316 µM
[2] = second compound 0.0316 µM, first compound 0.1 µM
[3] = second compound 0.0316 µM, first compound 0.316 µM
[4] = second compound 0.0316 µM, first compound 1 µM
[5] = second compound 0.0316 µM, first compound 3.16 µM
[6] = second compound 0.0316 µM, first compound 10 µM
[7] = second compound 0.1 µM, first compound 0.0316 µM
[8] = second compound 0.1 µM, first compound 0.1 µM
[9] = second compound 0.1 µM, first compound 0.316 µM
[10] = second compound 0.1 µM, first compound 1 µM
[11] = second compound 0.1 µM, first compound 3.16 µM
[12] = second compound 0.1 µM, first compound 10 µM
[13] = second compound 0.316 µM, first compound 0.0316 µM
[14] = second compound 0.316 µM, first compound 0.1 µM
[15] = second compound 0.316 µM, first compound 0.316 µM
[16] = second compound 0.316 µM, first compound 1 µM
[17] = second compound 0.316 µM, first compound 3.16 µM
[18] = second compound 0.316 µM, first compound 10 µM
[19] = second compound 1 µM, first compound 0.0316 µM
[20] = second compound 1 µM, first compound 0.1 µM
[21] = second compound 1 µM, first compound 0.316 µM
[22] = second compound 1 µM, first compound 1 µM
[23] = second compound 1 µM, first compound 3.16 µM
[24] = second compound 1 µM, first compound 10 µM
[25] = second compound 3.16 µM, first compound 0.0316 µM
[26] = second compound 3.16 µM, first compound 0.1 µM
[27] = second compound 3.16 µM, first compound 0.316 µM
[28] = second compound 3.16 µM, first compound 1 µM
[29] = second compound 3.16 µM, first compound 3.16 µM
[30] = second compound 3.16 µM, first compound 10 µM
[31] = second compound 10 µM, first compound 0.0316 µM
[32] = second compound 10 µM, first compound 0.1 µM
[33] = second compound 10 µM, first compound 0.316 µM
[34] = second compound 10 µM, first compound 1 µM
[35] = second compound 10 µM, first compound 3.16 µM
[36] = second compound 10 µM, first compound 10 µM
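Also: spheroids exposed to drugs for seven days before readout.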
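For viability, T/C in this document: percent viability relative to DMSO vehicle control taken as 100%.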

Q: For `Nc1ccn(C2OC(CO)C(O)C2(F)F)c(=O)n1` (stereo unspecified) + Cc1cccc(N(C)C(=O)C2C(O)CCN2c2nc(C)cc(C(F)(F)F)c2C#N)c1, which IC50 (second compound 0.0316 µM) is on record?
A: < 31.6 nM

Q: And the IC50 (second compound 0.1 µM)?
A: < 31.6 nM

Q: And the IC50 (second compound 0.316 µM)?
A: < 31.6 nM

Q: What about the IC50 (second compound 1 µM) of the same molecule?
A: < 31.6 nM

Q: And the IC50 (second compound 3.16 µM)?
A: < 31.6 nM

Q: And the IC50 (second compound 10 µM)?
A: < 31.6 nM

Q: And the viability, T/C [1]?
A: 25.1%

Q: What about the viability, T/C [2] of the same molecule?
A: 9.7%

Q: And the viability, T/C [3]?
A: 7.84%

Q: What about the viability, T/C [4] of the same molecule?
A: 9.16%

Q: What about the viability, T/C [5] of the same molecule?
A: 9.02%

Q: And the viability, T/C [6]?
A: 7.36%

Q: What about the viability, T/C [7] of the same molecule?
A: 21%

Q: And the viability, T/C [8]?
A: 11.4%

Q: What about the viability, T/C [9] of the same molecule?
A: 10.4%

Q: What about the viability, T/C [10] of the same molecule?
A: 8.24%

Q: What about the viability, T/C [11] of the same molecule?
A: 9.14%

Q: And the viability, T/C [12]?
A: 8.33%

Q: And the viability, T/C [13]?
A: 25.4%

Q: And the viability, T/C [14]?
A: 11.3%

Q: And the viability, T/C [15]?
A: 7.36%

Q: And the viability, T/C [16]?
A: 9.63%

Q: What about the viability, T/C [17] of the same molecule?
A: 9.1%

Q: What about the viability, T/C [18] of the same molecule?
A: 9.51%

Q: What about the viability, T/C [19] of the same molecule?
A: 17.7%

Q: And the viability, T/C [20]?
A: 8.64%

Q: And the viability, T/C [21]?
A: 7.94%

Q: What about the viability, T/C [22] of the same molecule?
A: 9.54%

Q: What about the viability, T/C [23] of the same molecule?
A: 10.9%

Q: And the viability, T/C [24]?
A: 9.2%

Q: What about the viability, T/C [25] of the same molecule?
A: 21.1%

Q: And the viability, T/C [26]?
A: 10.5%

Q: And the viability, T/C [27]?
A: 8.82%

Q: And the viability, T/C [28]?
A: 9.94%

Q: What about the viability, T/C [29] of the same molecule?
A: 10.1%

Q: And the viability, T/C [30]?
A: 9.91%

Q: And the viability, T/C [31]?
A: 15.7%

Q: And the viability, T/C [32]?
A: 10.8%

Q: And the viability, T/C [33]?
A: 12.1%

Q: And the viability, T/C [34]?
A: 11.4%

Q: What about the viability, T/C [35] of the same molecule?
A: 13.6%

Q: What about the viability, T/C [36] of the same molecule?
A: 11.1%

Q: What does the source list for `CCc1c2c(nc3ccc(O)cc13)-c1cc3c(c(=O)n1C2)COC(=O)[C@]3(O)CC` + Nc1ccc(C#CCN(C(=O)Cc2ncc(C(F)(F)F)cc2C(F)(F)F)c2ccc(F)cc2)nn1?
A: IC50 (second compound 0.0316 µM): < 3.16 nM; IC50 (second compound 0.1 µM): 3.52 nM; IC50 (second compound 0.316 µM): < 3.16 nM; IC50 (second compound 1 µM): < 3.16 nM; IC50 (second compound 3.16 µM): < 3.16 nM; IC50 (second compound 10 µM): < 3.16 nM; viability, T/C (second compound 0.0316 µM, first compound 0.00316 µM): 45.5%; viability, T/C (second compound 0.0316 µM, first compound 0.01 µM): 17.6%; viability, T/C [1]: 12.6%; viability, T/C [2]: 4.69%; viability, T/C [3]: 3.2%; viability, T/C [4]: 1.03%; viability, T/C (second compound 0.1 µM, first compound 0.00316 µM): 53.6%; viability, T/C (second compound 0.1 µM, first compound 0.01 µM): 16.7%; viability, T/C [7]: 13.1%; viability, T/C [8]: 4.92%; viability, T/C [9]: 1.48%; viability, T/C [10]: 0.65%; viability, T/C (second compound 0.316 µM, first compound 0.00316 µM): 48.6%; viability, T/C (second compound 0.316 µM, first compound 0.01 µM): 12.6%; viability, T/C [13]: 11.1%; viability, T/C [14]: 4.23%; viability, T/C [15]: 1.5%; viability, T/C [16]: 0.7%; viability, T/C (second compound 1 µM, first compound 0.00316 µM): 47.8%; viability, T/C (second compound 1 µM, first compound 0.01 µM): 13.7%; viability, T/C [19]: 10.4%; viability, T/C [20]: 5.54%; viability, T/C [21]: 1.41%; viability, T/C [22]: 3.04%; viability, T/C (second compound 3.16 µM, first compound 0.00316 µM): 47.9%; viability, T/C (second compound 3.16 µM, first compound 0.01 µM): 15.1%; viability, T/C [25]: 9.79%; viability, T/C [26]: 3.28%; viability, T/C [27]: 1.52%; viability, T/C [28]: 0.83%; viability, T/C (second compound 10 µM, first compound 0.00316 µM): 41.9%; viability, T/C (second compound 10 µM, first compound 0.01 µM): 14.7%; viability, T/C [31]: 11.6%; viability, T/C [32]: 4.49%; viability, T/C [33]: 1.89%; viability, T/C [34]: 0.9%

Q: For `CCc1cc2c(N3CCc4c(cc(Cn5ccnc5)cc4-c4cn(C)nc4C(F)(F)F)C3=O)cc(C)nc2c(OC)n1` + Cc1cccc(N(C)C(=O)C2C(O)CCN2c2nc(C)cc(C(F)(F)F)c2C#N)c1, which IC50 (second compound 0.0316 µM) is on record?
A: > 10000 nM

Q: And the IC50 (second compound 0.1 µM)?
A: > 10000 nM

Q: What about the IC50 (second compound 0.316 µM) of the same molecule?
A: > 10000 nM

Q: What about the IC50 (second compound 1 µM) of the same molecule?
A: 9000 nM

Q: What about the IC50 (second compound 3.16 µM) of the same molecule?
A: 6790 nM

Q: And the IC50 (second compound 10 µM)?
A: 1930 nM

Q: And the viability, T/C [1]?
A: 77.2%

Q: And the viability, T/C [2]?
A: 80%

Q: What about the viability, T/C [3] of the same molecule?
A: 61.9%

Q: And the viability, T/C [4]?
A: 62.4%

Q: What about the viability, T/C [5] of the same molecule?
A: 64%

Q: What about the viability, T/C [6] of the same molecule?
A: 48.9%

Q: And the viability, T/C [7]?
A: 92.7%

Q: And the viability, T/C [8]?
A: 69.5%

Q: And the viability, T/C [9]?
A: 56.1%

Q: What about the viability, T/C [10] of the same molecule?
A: 58.4%

Q: What about the viability, T/C [11] of the same molecule?
A: 55.4%

Q: And the viability, T/C [12]?
A: 46.9%

Q: What about the viability, T/C [13] of the same molecule?
A: 78.9%

Q: What about the viability, T/C [14] of the same molecule?
A: 72.9%

Q: And the viability, T/C [15]?
A: 67.8%

Q: What about the viability, T/C [16] of the same molecule?
A: 59.4%

Q: What about the viability, T/C [17] of the same molecule?
A: 60.8%

Q: What about the viability, T/C [18] of the same molecule?
A: 51.4%

Q: What about the viability, T/C [19] of the same molecule?
A: 77.3%

Q: What about the viability, T/C [20] of the same molecule?
A: 68.2%

Q: And the viability, T/C [21]?
A: 68.1%

Q: What about the viability, T/C [22] of the same molecule?
A: 59%

Q: What about the viability, T/C [23] of the same molecule?
A: 62.4%

Q: What about the viability, T/C [24] of the same molecule?
A: 46.6%

Q: What about the viability, T/C [25] of the same molecule?
A: 76.4%

Q: What about the viability, T/C [26] of the same molecule?
A: 73.6%

Q: And the viability, T/C [27]?
A: 61%

Q: What about the viability, T/C [28] of the same molecule?
A: 53.9%

Q: What about the viability, T/C [29] of the same molecule?
A: 51.9%

Q: What about the viability, T/C [30] of the same molecule?
A: 48.1%

Q: What about the viability, T/C [31] of the same molecule?
A: 70.7%

Q: And the viability, T/C [32]?
A: 64%

Q: And the viability, T/C [33]?
A: 61.5%

Q: And the viability, T/C [34]?
A: 49.2%

Q: What about the viability, T/C [35] of the same molecule?
A: 50.9%

Q: What about the viability, T/C [36] of the same molecule?
A: 41.2%
